Laboratory results: the supplement of paper PMC11451515

Test system: SEM cells
Assay: cell viability relative to DMSO control; higher = less cytotoxic
Settings: 48 h
Outline: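 Viability is a per-plate percentage relative to DMSO wells, with cell-free wells as background. CellTiter-Glo One luminescence was read after 48 h at 37°C on 1536-well plates (5 μl) of NOMO1 or SEM (500 cells/well) or P12-Ichikawa (1000 cells/well) leukemia cells. The cells had been adapted for at least four passages in each medium and pin-dosed with library compounds in DMSO from 47 μM to 0.79 nM in 11 threefold steps.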

[1] = HPLM + 10% dialyzed FBS, 0.000781 µM
[2] = HPLM + 10% dialyzed FBS, 0.00234 µM
[3] = HPLM + 10% dialyzed FBS, 0.00702 µM
[4] = HPLM + 10% dialyzed FBS, 0.0211 µM
[5] = HPLM + 10% dialyzed FBS, 0.0632 µM
[6] = HPLM + 10% dialyzed FBS, 0.19 µM
[7] = HPLM + 10% dialyzed FBS, 0.569 µM
[8] = HPLM + 10% dialyzed FBS, 1.71 µM
[9] = HPLM + 10% dialyzed FBS, 5.12 µM
[10] = HPLM + 10% dialyzed FBS, 15.4 µM
[11] = HPLM + 10% dialyzed FBS, 46.1 µM
[12] = RPMI 5 mM glucose + 10% FBS, 0.000781 µM
[13] = RPMI 5 mM glucose + 10% FBS, 0.00234 µM
[14] = RPMI 5 mM glucose + 10% FBS, 0.00702 µM
[15] = RPMI 5 mM glucose + 10% FBS, 0.0211 µM
[16] = RPMI 5 mM glucose + 10% FBS, 0.0632 µM
[17] = RPMI 5 mM glucose + 10% FBS, 0.19 µM
[18] = RPMI 5 mM glucose + 10% FBS, 0.569 µM
[19] = RPMI 5 mM glucose + 10% FBS, 1.71 µM
[20] = RPMI 5 mM glucose + 10% FBS, 5.12 µM
[21] = RPMI 5 mM glucose + 10% FBS, 15.4 µM
[22] = RPMI 5 mM glucose + 10% FBS, 46.1 µM
[23] = RPMI 5 mM glucose + 10% dialyzed FBS, 0.000781 µM
[24] = RPMI 5 mM glucose + 10% dialyzed FBS, 0.00234 µM
[25] = RPMI 5 mM glucose + 10% dialyzed FBS, 0.00702 µM
[26] = RPMI 5 mM glucose + 10% dialyzed FBS, 0.0211 µM
[27] = RPMI 5 mM glucose + 10% dialyzed FBS, 0.0632 µM
[28] = RPMI 5 mM glucose + 10% dialyzed FBS, 0.19 µM
[29] = RPMI 5 mM glucose + 10% dialyzed FBS, 0.569 µM
[30] = RPMI 5 mM glucose + 10% dialyzed FBS, 1.71 µM
[31] = RPMI 5 mM glucose + 10% dialyzed FBS, 5.12 µM
[32] = RPMI 5 mM glucose + 10% dialyzed FBS, 15.4 µM
[33] = RPMI 5 mM glucose + 10% dialyzed FBS, 46.1 µM

CCOc1ccc(Nc2nc(-c3c(C)nc4ccccn34)cs2)cc1
cell viability [1]: 98.8% | cell viability [2]: 105% | cell viability [3]: 111% | cell viability [4]: 89.9% | cell viability [5]: 38.5% | cell viability [6]: 22.3% | cell viability [7]: 20.4% | cell viability [8]: 21.1% | cell viability [9]: 20.1% | cell viability [10]: 23.5% | cell viability [11]: 22.9% | cell viability [12]: 114% | cell viability [13]: 107% | cell viability [14]: 112% | cell viability [15]: 94.8% | cell viability [16]: 46.8% | cell viability [17]: 14.5% | cell viability [18]: 15.6% | cell viability [19]: 13.3% | cell viability [20]: 15.7% | cell viability [21]: 14.3% | cell viability [22]: 10.9% | cell viability [23]: 116% | cell viability [24]: 94.7% | cell viability [25]: 96.5% | cell viability [26]: 110% | cell viability [27]: 91.1% | cell viability [28]: 26.8% | cell viability [29]: 24.3% | cell viability [30]: 20.7% | cell viability [31]: 19.1% | cell viability [32]: 19.7% | cell viability [33]: 18.8%

CCn1c(-c2nonc2N)nc2cncc(CNC3CCNCC3)c21
cell viability [1]: 119% | cell viability [2]: 121% | cell viability [3]: 126% | cell viability [4]: 134% | cell viability [5]: 137% | cell viability [6]: 131% | cell viability [7]: 129% | cell viability [8]: 109% | cell viability [9]: 96.1% | cell viability [10]: 60.7% | cell viability [11]: 30.8% | cell viability [12]: 101% | cell viability [13]: 125% | cell viability [14]: 124% | cell viability [15]: 143% | cell viability [16]: 144% | cell viability [17]: 152% | cell viability [18]: 120% | cell viability [19]: 61.5% | cell viability [20]: 58.3% | cell viability [21]: 18.9% | cell viability [22]: 15.8% | cell viability [23]: 123% | cell viability [24]: 126% | cell viability [25]: 113% | cell viability [26]: 131% | cell viability [27]: 118% | cell viability [28]: 115% | cell viability [29]: 137% | cell viability [30]: 110% | cell viability [31]: 100% | cell viability [32]: 45.2% | cell viability [33]: 22.7%

CC(=O)N1CCN(c2ccc(OC[C@H]3CO[C@](Cn4ccnc4)(c4ccc(Cl)cc4Cl)O3)cc2)CC1
cell viability [1]: 98.3% | cell viability [2]: 97.8% | cell viability [3]: 104% | cell viability [4]: 95.2% | cell viability [5]: 107% | cell viability [6]: 26.4% | cell viability [7]: 90.9% | cell viability [8]: 92.8% | cell viability [9]: 21.5% | cell viability [10]: 87.1% | cell viability [11]: 86.4% | cell viability [12]: 124% | cell viability [13]: 136% | cell viability [14]: 121% | cell viability [15]: 125% | cell viability [16]: 134% | cell viability [17]: 28% | cell viability [18]: 113% | cell viability [19]: 104% | cell viability [20]: 14.1% | cell viability [21]: 90.5% | cell viability [22]: 48.5%

O=C(O)c1ccc(-n2nc(-c3ccccc3O)nc2-c2ccccc2O)cc1
cell viability [1]: 86.4% | cell viability [2]: 93% | cell viability [3]: 85.3% | cell viability [4]: 92% | cell viability [5]: 90.9% | cell viability [6]: 94.6% | cell viability [7]: 96.4% | cell viability [8]: 98% | cell viability [9]: 101% | cell viability [10]: 82.1% | cell viability [11]: 43% | cell viability [12]: 80.7% | cell viability [13]: 76.6% | cell viability [14]: 86.7% | cell viability [15]: 86.8% | cell viability [16]: 100% | cell viability [17]: 96.9% | cell viability [18]: 93.3% | cell viability [19]: 93.7% | cell viability [20]: 108% | cell viability [21]: 66% | cell viability [22]: 24.9% | cell viability [23]: 77.6% | cell viability [24]: 76% | cell viability [25]: 91% | cell viability [26]: 98.1% | cell viability [27]: 95.5% | cell viability [28]: 108% | cell viability [29]: 102% | cell viability [30]: 102% | cell viability [31]: 99.1% | cell viability [32]: 58.8% | cell viability [33]: 19.4%

CN(C/C=C/C#CC(C)(C)C)Cc1cccc2ccccc12
cell viability [1]: 81.5% | cell viability [2]: 84.7% | cell viability [3]: 93% | cell viability [4]: 92.4% | cell viability [5]: 96.3% | cell viability [6]: 101% | cell viability [7]: 114% | cell viability [8]: 94% | cell viability [9]: 107% | cell viability [10]: 100% | cell viability [11]: 98.3% | cell viability [12]: 72.2% | cell viability [13]: 99.6% | cell viability [14]: 86.7% | cell viability [15]: 94.2% | cell viability [16]: 93.3% | cell viability [17]: 101% | cell viability [18]: 105% | cell viability [19]: 105% | cell viability [20]: 95% | cell viability [21]: 76.5% | cell viability [22]: 99.4% | cell viability [23]: 81% | cell viability [24]: 90.4% | cell viability [25]: 85.9% | cell viability [26]: 98.9% | cell viability [27]: 110% | cell viability [28]: 95.6% | cell viability [29]: 96.6% | cell viability [30]: 104% | cell viability [31]: 117% | cell viability [32]: 104% | cell viability [33]: 95%

Cc1cc(Nc2nc(N[C@@H](C)c3ncc(F)cn3)ncc2Cl)n[nH]1
cell viability [1]: 93% | cell viability [2]: 97.4% | cell viability [3]: 109% | cell viability [4]: 114% | cell viability [5]: 103% | cell viability [6]: 106% | cell viability [7]: 102% | cell viability [8]: 99.4% | cell viability [9]: 61.2% | cell viability [10]: 21.7% | cell viability [11]: 19.4% | cell viability [12]: 120% | cell viability [13]: 129% | cell viability [14]: 114% | cell viability [15]: 110% | cell viability [16]: 112% | cell viability [17]: 126% | cell viability [18]: 110% | cell viability [19]: 26.2% | cell viability [20]: 19% | cell viability [21]: 17.1% | cell viability [22]: 20.3%

CCOC(=O)N1CCN(/[N+]([O-])=N/Oc2ccc([N+](=O)[O-])cc2[N+](=O)[O-])CC1
cell viability [1]: 64.4% | cell viability [2]: 70.7% | cell viability [3]: 60.1% | cell viability [4]: 77.6% | cell viability [5]: 76% | cell viability [6]: 94.4% | cell viability [7]: 85.7% | cell viability [8]: 73.8% | cell viability [9]: 42.5% | cell viability [10]: 22.4% | cell viability [11]: 14% | cell viability [12]: 70.6% | cell viability [13]: 84.9% | cell viability [14]: 56.8% | cell viability [15]: 91.9% | cell viability [16]: 93.9% | cell viability [17]: 94.9% | cell viability [18]: 88.8% | cell viability [19]: 81.5% | cell viability [20]: 40.7% | cell viability [21]: 13.2% | cell viability [22]: 8.13% | cell viability [23]: 77.3% | cell viability [24]: 91.6% | cell viability [25]: 72.5% | cell viability [26]: 88.2% | cell viability [27]: 89% | cell viability [28]: 86.2% | cell viability [29]: 102% | cell viability [30]: 78.2% | cell viability [31]: 43.6% | cell viability [32]: 16.7% | cell viability [33]: 8.98%

CC(C)(C)c1cc(C=C(C#N)C#N)cc(Br)c1O
cell viability [1]: 87% | cell viability [2]: 109% | cell viability [3]: 42.3% | cell viability [4]: 114% | cell viability [5]: 111% | cell viability [6]: 109% | cell viability [7]: 114% | cell viability [8]: 110% | cell viability [9]: 111% | cell viability [10]: 108% | cell viability [11]: 104% | cell viability [12]: 65.4% | cell viability [13]: 72.7% | cell viability [14]: 11.9% | cell viability [15]: 67.3% | cell viability [16]: 90.6% | cell viability [17]: 81.4% | cell viability [18]: 83.8% | cell viability [19]: 77.4% | cell viability [20]: 71.5% | cell viability [21]: 77.7% | cell viability [22]: 77.5% | cell viability [23]: 87.3% | cell viability [24]: 98.8% | cell viability [25]: 35.7% | cell viability [26]: 111% | cell viability [27]: 108% | cell viability [28]: 123% | cell viability [29]: 119% | cell viability [30]: 107% | cell viability [31]: 105% | cell viability [32]: 115% | cell viability [33]: 90.7%
